# According to PubChem BioAssay AID1845198 (Molecular Pharmacology Branch, DTP, NCI, 2023):
# Several values for one entry are separate records, joined by “and”; a condition that tells them apart may be missing. Equal entries are not always repeated.
# Test system: 425362-245-T-J1 tumor spheroids, viability % test/control
# Assay: Anticancer human tumor 425362-245-T-J1 patient-derived melanoma cell line growth inhibition
# Settings: spheroids with HUVEC and MSC; for viability, T/C: stronger effect = lower value
# Description: Multicellular complex tumor spheroid response to DNA repair inhibitors in combination with DNA-damaging drugs
# This study explores the anticancer activities of DNA-damaging drugs and inhibitors of DNA damage repair, both as single agents and in combinations. Complex tumor spheroids comprised of malignant cells, endothelial cells and mesenchymal stem cells served as an in vitro model for human solid tumors. This model system incorporates physiologically relevant features and patient-derived or established malignant cell lines with clinically relevant genetic alterations from many tumor types. Twenty-six patient-derived or established malignant cell lines were evaluated representing sarcoma, melanoma, small cell lung cancer (SCLC), non-small cell lung cancer (NSCLC), as well as bladder, ovarian and pancreatic cancers. The concentration ranges selected for each drug and investigational agent were based upon clinically achievable concentrations if the clinical Cmax of the agent was known.
# Compounds. The drugs and compounds olaparib (NSC753686), talazoparib (NSC767125), berzosertib (NSC777718), elimusertib (NSC800525), nedisertib (NSC802822), VX-984 (NSC792969), AZD-1390 (NSC803789), temozolomide (NSC362856), topotecan (NSC609699), trabectedin (NSC813783), staurosporine (NSC755774), and gemcitabine (NSC613327) were obtained from the National Cancer Institute (NCI) Developmental Therapeutics Program Chemical Repository. The FDA-approved anticancer drug set is available from the Developmental Therapeutics Program at https://dtp.cancer.gov/organization/dscb/obtaining/available_plates.htm. […] The stock solutions were prepared in dimethyl sulfoxide (DMSO, Sigma-Aldrich, St. Louis, MO, cat. D2650) at 400-fold the tested concentration and stored at -70 degrees C. Prior to their use, the stock solutions were diluted in fresh medium and the final DMSO concentration in the assay was 0.25% (v/v). All drugs and investigational agents were tested over a range starting from a high concentration at or near the clinical Cmax and decreasing in half-log increments. If the clinical Cmax for an agent had not been determined, the highest concentration tested was 10 microM.
# Cell Lines. The patient-derived cancer cell (PDC) lines: 156681-154-R-J1-PDC, 283228-195-R-J1-PDC, 287954-098-R-J1-PDC, 292921-168-R-J2-PDC, 349418-098-R-PDC, 425362-245-T-J1-PDC, 556581-035-R-J1-PDC, and BL0293-F563-PDC were received from the NCI Patient-Derived Models Repository (PDMR, https://pdmr.cancer.gov). The established cell lines HS-SY-2 (RRID:CVCL_8719), MPNST, and SYO-1 (RRID:CVCL_7146) were obtained from the Sloan Kettering Institute. The alveolar soft parts sarcoma cell line ASPS-1 (RRID:CVCL_S738) was established at the NCI and grown from internal seed stocks. The following established cell lines were purchased from the American Type Culture Collection (ATCC, Manassas, VA): G-401 (ATCC, cat. CRL-1441, RRID:CVCL_0270), SW982 (ATCC, cat. HTB-93, RRID:CVCL_1734), VA-ES-BJ (ATCC, cat. CRL-2138, RRID:CVCL_1785), NCI-H719 (ATCC, cat. CRL-5837, RRID:CVCL_1582), NCI-H196 (ATCC, cat. CRL-5823, RRID:CVCL_1509), NCI-H841 (ATCC, cat. CRL-5845, RRID:CVCL_1595), NCI-H1618 (ATCC, cat. CRL-5879, RRID:CVCL_1480), NCI-H1876 (ATCC, cat. CRL-5902, RRID:CVCL_1503), DMS 114 (ATCC, cat. CRL-2066; RRID:CVCL_1174), NCI-H211 (ATCC, cat. CRL-5824; RRID:CVCL_1529), and SW 1271 (ATCC, cat. CRL-2177, RRID:CVCL_1716). The small cell lung cancer cell line COR-L88 was purchased from Sigma-Aldrich (cat. 92031917-1VL, RRID:CVCL_1141). The non-small cell lung cancer cell lines NCI-H226 (RRID:CVCL_1544) and NCI-H322M (RRID:CVCL_1557) were established at the NCI and grown from internal seed stocks. Pooled donor human umbilical vein endothelial cells (HUVEC, Lonza, cat. CC-2519) and human mesenchymal stem cells (hMSC, Lonza, cat. PT-2501) were purchased from Lonza (Walkersville, MD).
# Cell Culture. All cells were maintained in an incubator at 37 degrees C and 5% CO2 with 95% humidity. […]
# 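Note: spheroids exposed to agents for 7 days.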
"IC50 (compound alone, run of 10/17/2019)",SMILES,"viability, T/C (compound 0.0316 µM)","viability, T/C (compound 0.1 µM)","viability, T/C (compound 0.316 µM)","viability, T/C (compound 1 µM)","viability, T/C (compound 3.16 µM)","viability, T/C (compound 10 µM)",IC50 (curve of compound),"viability, T/C (compound 0.00949 µM)","viability, T/C (compound 0.03 µM)","viability, T/C (compound 0.0949 µM)","viability, T/C (compound 0.3 µM)","viability, T/C (compound 0.949 µM)","viability, T/C (compound 3 µM)","viability, T/C (compound 31.6 µM)","viability, T/C (compound 100 µM)","viability, T/C (compound 9.49 µM)","viability, T/C (compound 30 µM)"
,COc1ccc([C@@H](O)c2cc(-c3ncnc4cc(N5CCOCC5)ccc34)c(F)cc2Cl)nn1,101% and 96.8% and 105%,92.6% and 110% and 104%,90.7% and 98.8% and 92.3%,65.5% and 76.1% and 72.6%,38% and 44.5% and 42.9%,18.8% and 22.8% and 19.7%,1930 nM and 2520 nM and 2400 nM,,,,,,,,,,
,Cc1cc(C)c(CNC(=O)c2cc(-c3ccc(CN4CCOCC4)cc3)cc3c2cnn3C2CCCC2)c(=O)[nH]1,101% and 97.2% and 92.7%,93% and 116% and 102%,103% and 97.9% and 84.5%,100% and 80.2% and 86.5%,81.8% and 49.8% and 46.3%,42.6% and 15.2% and 14.8%,8060 nM and 3010 nM and 2860 nM,,,,,,,,,,
,Cc1sc2c(c1C)C(c1ccc(Cl)cc1)=NC(CC(=O)Nc1ccc(O)cc1)c1nnc(C)n1-2 (stereo unspecified),,,,,,,95.3 nM and 85.6 nM and 80.2 nM,97.8% and 84.1% and 108%,91.2% and 76% and 93%,49.5% and 47.9% and 42.8%,12.8% and 12% and 8.15%,5.36% and 3.14% and 2.44%,2.57% and 1.92% and 2.11%,,,,
,Cn1ncnc1[C@H]1c2n[nH]c(=O)c3cc(F)cc(c23)N[C@@H]1c1ccc(F)cc1,,,,,,,29 nM and 22 nM and 14.1 nM,74.9% and 69% and 59.1%,46.1% and 42.9% and 33.5%,35.3% and 25.2% and 18.1%,16.1% and 14.1% and 15.6%,10.1% and 9.44% and 9.39%,3.22% and 2.7% and 1.7%,,,,
> 100000 nM,Cn1nnc2c(C(N)=O)ncn2c1=O,,,,,106% [middle of 10 runs],,,,,,,,,108% [middle of 10 runs],92.1% [middle of 10 runs],,
,O=C(c1cc(Cc2n[nH]c(=O)c3ccccc23)ccc1F)N1CCN(C(=O)C2CC2)CC1,,,,,,,2140 nM and 3840 nM and 2500 nM,,,92.6% and 110% and 97.2%,82.7% and 97.3% and 92.5%,73.7% and 88.9% and 75.7%,41.4% and 60.6% and 45.6%,,,12% and 18.8% and 18.9%,7.13% and 11.4% and 9.39%
,[2H]c1nc(C)nc([2H])c1-c1cc(NC[C@@H](C)c2cccc3c(C(=O)NC)ccnc23)ncn1,103% and 96.9% and 88.3%,97.1% and 90.8% and 81.5%,112% and 98.8% and 69.9%,108% and 104% and 63.5%,110% and 96.8% and 52.8%,103% and 96.5% and 25.2%,> 10000 nM and 2820 nM,,,,,,,,,,
